Biological target: T1, Nav1.7 (or SCN9A) channel; HEK cells stably transfected with hSCN9A (Homo sapiens, UniProt Q15858)
T1 construct: expressed in transfected cells
Test: Nav1.7 block, PatchXpress 7000 automated whole-cell voltage clamp, estimated IC50 (EIC50)
Format: cell-based
Settings: estimated IC50; hSCN9A HEK cells, PatchXpress platform; Examples 283-814

T1 sequence (Q15858 whole entry): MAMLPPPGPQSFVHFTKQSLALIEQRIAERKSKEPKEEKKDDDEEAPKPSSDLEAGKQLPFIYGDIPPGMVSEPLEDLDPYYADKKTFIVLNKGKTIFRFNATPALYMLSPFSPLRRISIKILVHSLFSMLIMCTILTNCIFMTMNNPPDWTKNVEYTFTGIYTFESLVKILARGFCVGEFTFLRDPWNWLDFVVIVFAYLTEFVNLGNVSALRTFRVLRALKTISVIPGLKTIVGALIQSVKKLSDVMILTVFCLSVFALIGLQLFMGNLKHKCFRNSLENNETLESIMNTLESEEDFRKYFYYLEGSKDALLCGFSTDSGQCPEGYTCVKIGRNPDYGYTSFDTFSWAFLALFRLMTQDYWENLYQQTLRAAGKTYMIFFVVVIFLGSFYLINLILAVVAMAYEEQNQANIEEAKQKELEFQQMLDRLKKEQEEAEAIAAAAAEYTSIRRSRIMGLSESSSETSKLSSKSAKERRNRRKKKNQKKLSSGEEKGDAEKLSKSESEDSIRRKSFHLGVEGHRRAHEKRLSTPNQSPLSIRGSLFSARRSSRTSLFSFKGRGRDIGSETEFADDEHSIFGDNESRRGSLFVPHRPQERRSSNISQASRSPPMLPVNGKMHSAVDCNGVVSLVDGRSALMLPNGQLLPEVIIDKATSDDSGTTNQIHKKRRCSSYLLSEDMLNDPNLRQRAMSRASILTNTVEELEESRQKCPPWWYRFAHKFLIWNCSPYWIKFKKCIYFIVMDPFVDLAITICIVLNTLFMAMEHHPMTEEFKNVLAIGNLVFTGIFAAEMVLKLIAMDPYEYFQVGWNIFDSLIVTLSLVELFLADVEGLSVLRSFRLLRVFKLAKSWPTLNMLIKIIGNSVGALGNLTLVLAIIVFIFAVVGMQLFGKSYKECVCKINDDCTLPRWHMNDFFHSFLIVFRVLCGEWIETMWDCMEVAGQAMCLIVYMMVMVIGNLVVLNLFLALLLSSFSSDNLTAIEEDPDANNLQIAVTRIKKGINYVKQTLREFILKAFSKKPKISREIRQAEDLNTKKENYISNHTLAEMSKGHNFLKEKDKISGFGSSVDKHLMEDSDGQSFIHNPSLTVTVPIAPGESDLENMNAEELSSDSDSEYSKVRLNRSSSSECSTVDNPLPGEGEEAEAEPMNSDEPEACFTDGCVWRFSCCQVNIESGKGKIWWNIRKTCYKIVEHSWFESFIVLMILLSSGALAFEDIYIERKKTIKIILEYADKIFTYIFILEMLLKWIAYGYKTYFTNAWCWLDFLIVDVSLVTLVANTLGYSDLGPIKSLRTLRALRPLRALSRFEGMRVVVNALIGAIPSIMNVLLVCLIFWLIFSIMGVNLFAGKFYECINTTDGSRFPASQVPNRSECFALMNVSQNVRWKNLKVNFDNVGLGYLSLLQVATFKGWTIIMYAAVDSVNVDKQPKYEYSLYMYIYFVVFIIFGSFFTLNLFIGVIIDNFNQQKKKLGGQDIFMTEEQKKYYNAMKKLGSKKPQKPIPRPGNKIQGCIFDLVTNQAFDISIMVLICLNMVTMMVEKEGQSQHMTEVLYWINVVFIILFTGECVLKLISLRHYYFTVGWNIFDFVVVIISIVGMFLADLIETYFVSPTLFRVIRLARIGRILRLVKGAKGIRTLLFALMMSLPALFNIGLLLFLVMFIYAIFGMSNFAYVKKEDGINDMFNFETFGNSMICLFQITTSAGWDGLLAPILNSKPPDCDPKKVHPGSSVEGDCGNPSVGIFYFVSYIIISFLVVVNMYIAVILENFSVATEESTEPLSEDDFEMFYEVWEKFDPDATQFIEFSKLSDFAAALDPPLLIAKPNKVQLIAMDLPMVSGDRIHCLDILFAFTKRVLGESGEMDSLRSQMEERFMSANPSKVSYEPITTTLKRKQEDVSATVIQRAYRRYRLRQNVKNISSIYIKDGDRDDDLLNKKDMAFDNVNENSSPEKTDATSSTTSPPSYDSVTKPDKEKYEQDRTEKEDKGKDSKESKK

IC50	Compound
410 nM	CCn1nc(C(C)(C)C#N)cc1-c1ccc(Oc2ccc(S(=O)(=O)Nc3nccs3)cc2C#N)cc1 [Example 548, 3-cyano-4-{4-[3-(1-cyano-1-methylethyl)-1-ethyl-1H-pyrazol-5-yl]phenoxy}-N-1,3-thiazol-2-ylbenzenesulfonamide]
160 nM	N#Cc1cc(S(=O)(=O)Nc2nccs2)ccc1Oc1cccc(-c2cc(C(F)(F)F)nn2CCO)c1 [Example 549, 3-cyano-4-{3-[1-(2-hydroxyethyl)-3-(trifluoromethyl)-1H-pyrazol-5-yl]phenoxy}-N-1,3-thiazol-2-ylbenzenesulfonamide]
71 nM	N#Cc1cc(S(=O)(=O)Nc2nccs2)ccc1Oc1ccc(-c2cc(C(F)(F)F)nn2CCCF)cc1F [Example 551, 3-cyano-4-{2-fluoro-4-[1-(3-fluoropropyl)-3-(trifluoromethyl)-1H-pyrazol-5-yl]phenoxy}-N-1,3-thiazol-2-ylbenzenesulfonamide]
1.7 nM	Nc1cc(-c2cc(OC(F)(F)F)ccc2Oc2cc(F)c(S(=O)(=O)Nc3ncns3)cc2Cl)ccn1 [Example 553, 4-[2-(2-aminopyridin-4-yl)-4-(trifluoromethoxy)phenoxy]-5-chloro-2-fluoro-N-1,2,4-thiadiazol-5-ylbenzenesulfonamide]
120 nM	Nc1ccnc(-c2cc(Cl)ccc2Oc2cc(F)c(S(=O)(=O)Nc3ncns3)cc2Cl)c1 [Example 554, 4-[2-(4-aminopyridin-2-yl)-4-chlorophenoxy]-5-chloro-2-fluoro-N-1,2,4-thiadiazol-5-ylbenzenesulfonamide]
14 nM	Nc1cccc(-c2cc(C(F)(F)F)ccc2Oc2cc(F)c(S(=O)(=O)Nc3ncns3)cc2F)n1 [Example 555, 4-[2-(6-aminopyridin-2-yl)-4-(trifluoromethyl)phenoxy]-2,5-difluoro-N-1,2,4-thiadiazol-5-ylbenzenesulfonamide]
2.3 nM	Nc1cc(-c2cc(C(F)(F)F)ccc2Oc2cc(F)c(S(=O)(=O)Nc3ncns3)cc2F)ccn1 [Example 556, 4-[2-(2-aminopyridin-4-yl)-4-(trifluoromethyl)phenoxy]-2,5-difluoro-N-1,2,4-thiadiazol-5-ylbenzenesulfonamide]
0.8 nM	Nc1cc(-c2cc(C(F)(F)F)ccc2Oc2cc(F)c(S(=O)(=O)Nc3ncns3)cc2Cl)ccn1 [Example 557, 4-[2-(2-aminopyridin-4-yl)-4-(trifluoromethyl)phenoxy]-5-chloro-2-fluoro-N-1,2,4-thiadiazol-5-ylbenzenesulfonamide]
39 nM	N#Cc1cc(S(=O)(=O)Nc2nccs2)ccc1Oc1ccc(-c2cc(C(F)(F)F)nn2C2CNC2)cc1 [Example 558, 4-{4-[1-azetidin-3-yl-3-(trifluoromethyl)-1H-pyrazol-5-yl]phenoxy}-3-cyano-N-1,3-thiazol-2-ylbenzenesulfonamide]
0.7 nM	N#Cc1cc(S(=O)(=O)Nc2ncc(Cl)s2)ccc1Oc1ccc(Cl)cc1-c1ccnn1C1CNC1 [Example 559, 4-[2-(1-azetidin-3-yl-1H-pyrazol-5-yl)-4-chlorophenoxy]-N-(5-chloro-1,3-thiazol-2-yl)-3-cyanobenzenesulfonamide]
78 nM	O=S(=O)(Nc1ccncn1)c1cc(Cl)c(Oc2ccc(Cl)cc2C2CCNCC2)cc1F [Example 560, 5-chloro-4-(4-chloro-2-piperidin-4-ylphenoxy)-2-fluoro-N-pyrimidin-4-ylbenzenesulfonamide]
380 nM	O=S(=O)(Nc1ccc(F)cn1)c1cc(F)c(Oc2ccc(Cl)cc2C2CCNCC2)cc1F [Example 561, 4-(4-chloro-2-piperidin-4-ylphenoxy)-2,5-difluoro-N-(5-fluoropyridin-2-yl)benzenesulfonamide]
17 nM	COCCn1nccc1-c1cc(Cl)ccc1Oc1ccc(S(=O)(=O)Nc2ncns2)cc1C#N [Example 562, 4-{4-chloro-2-[1-(2-methoxyethyl)-1H-pyrazol-5-yl]phenoxy}-3-cyano-N-1,2,4-thiadiazol-5-ylbenzenesulfonamide]
130 nM	COCCn1nccc1-c1cc(Cl)ccc1Oc1cc(F)c(S(=O)(=O)Nc2nncs2)cc1Cl [Example 563, 5-chloro-4-{4-chloro-2-[1-(2-methoxyethyl)-1H-pyrazol-5-yl]phenoxy}-2-fluoro-N-1,3,4-thiadiazol-2-ylbenzenesulfonamide]
9.2 nM	O=S(=O)(Nc1nncs1)c1cc(Cl)c(Oc2ccc(Cl)cc2-c2cn[nH]c2)cc1F [Example 564, 5-chloro-4-[4-chloro-2-(1H-pyrazol-4-yl)phenoxy]-2-fluoro-N-1,3,4-thiadiazol-2-ylbenzenesulfonamide]
54000 nM	Cc1nn(C)c(C)c1Cc1ccc(Oc2ccc(S(=O)(=O)Nc3ccc(F)cn3)cc2C#N)cc1 [Example 565, 3-cyano-N-(5-fluoropyridin-2-yl)-4-{4-[(1,3,5-trimethyl-1H-pyrazol-4-yl)methyl]phenoxy}benzenesulfonamide]
>30000 nM	N#Cc1cc(S(=O)(=O)Nc2ccc(F)cn2)ccc1Oc1ccc(CN2CCC2)c(F)c1 [Example 566, 4-[4-(azetidin-1-ylmethyl)-3-fluorophenoxy]-3-cyano-N-(5-fluoropyridin-2-yl)benzenesulfonamide]
>3000 nM	CCc1nnc(C)n1-c1ccc(Oc2ccc(S(=O)(=O)Nc3ccc(F)cn3)cc2C#N)cc1 [Example 568, 3-cyano-4-[4-(3-ethyl-5-methyl-4H-1,2,4-triazol-4-yl)phenoxy]-N-(5-fluoropyridin-2-yl)benzenesulfonamide]
>3000 nM	N#Cc1cc(S(=O)(=O)Nc2ccc(F)cn2)ccc1Oc1ccc(-n2ccnc2)cc1 [Example 569, 3-cyano-N-(5-fluoropyridin-2-yl)-4-[4-(1H-imidazol-1-yl)phenoxy]benzenesulfonamide]
8600 nM	CCNC(=O)c1ccc(-c2cccc(Oc3ccc(S(=O)(=O)Nc4ccc(F)cn4)cc3C#N)c2)cc1 [Example 570, 3′-(2-cyano-4-{[(5-fluoropyridin-2-yl)amino]sulfonyl}phenoxy)-N-ethylbiphenyl-4-carboxamide]
10000 nM	Cc1cc(-c2ccccc2Oc2ccc(S(=O)(=O)Nc3ccc(F)cn3)cc2C#N)sn1 [Example 571, 3-cyano-N-(5-fluoropyridin-2-yl)-4-[2-(3-methylisothiazol-5-yl)phenoxy]benzenesulfonamide]
>30000 nM	Cc1nc(-c2ccccc2Oc2ccc(S(=O)(=O)Nc3ccc(F)cn3)cc2C#N)cs1 [Example 572, 3-cyano-N-(5-fluoropyridin-2-yl)-4-[2-(2-methyl-1,3-thiazol-4-yl)phenoxy]benzenesulfonamide]
7300 nM	CN1CCC(c2cccc(Oc3ccc(S(=O)(=O)Nc4ccc(F)cn4)cc3C#N)c2)CC1 [Example 573, 3-cyano-N-(5-fluoropyridin-2-yl)-4-[3-(1-methylpiperidin-4-yl)phenoxy]benzenesulfonamide]
>3000 nM	Cc1nc(-c2cccc(Oc3ccc(S(=O)(=O)Nc4ccc(F)cn4)cc3C#N)c2)no1 [Example 574, 3-cyano-N-(5-fluoropyridin-2-yl)-4-[3-(5-methyl-1,2,4-oxadiazol-3-yl)phenoxy]benzenesulfonamide]

Compound	IC50
CN(C)CCn1nc(C(F)(F)F)cc1-c1cccc(Oc2ccc(S(=O)(=O)Nc3nccs3)cc2C#N)c1 [Example 550, 3-cyano-4-(3-{1-[2-(dimethylamino)ethyl]-3-(trifluoromethyl)-1H-pyrazol-5-yl}phenoxy)-N-1,3-thiazol-2-ylbenzenesulfonamide]	200 nM
